Consider 1 compound from US8232299B2, “Phthalimide derivatives that influence cellular vesicular systems, pharmaceutical compositions, and use thereof” (Avidin Kft., priority 2007, dated 2012).

The conditions of test [1]: Japanese patent JP10072346; cited from earlier work.
Test [2] concerns human melanoma (HT168M1). Description: subcutaneous melanoma tumor model. The format is in vivo, CB17/scid mice. The conditions noted are these: 40 mg/kg per os, once a day five days per week for 3 weeks from day 7; FIG. 8. On the procedure: Slightly anesthetized (diethyl ether narcosis) adult male CB17/scid mice born with immunodeficiency were subcutaneously (s.c.) implanted with 8×10^5 cells from in vitro human melanoma (HT168M1) cultures. After tumor cell inoculation animals were randomly assigned into three groups and their ears were marked. From the 7th day after the tumor cell inoculation mice were treated once a day five days per week for 3 weeks with compound 2 (40 mg/kg), or with compound 3b (40 mg/kg) per os by gavage. Control animals were treated with appropriate dilution of the carrier (DMSO) in a similar manner with similar frequency. Body weight changes were monitored once a week for each animal. When subcutaneous tumor reached palpable size its dimensions were also detected with caliper. Tumor volume was estimated by the formula π/6×a×b^2, where “a” is the longer and “b” is the shorter diameter. 30 days after implantation animals were sacrificed by bleeding in Nembutal (75 mg/kg) anesthesia. Evaluation was based on the mass of the primary tumor.
In this experiment the effect of compound 2 and compound 3b was tested in oral administration at the same dose (40 mg/kg).

In test [3] the test system is tumor necrosis factor. Particulars: Japanese patent application JP10072346; cited from earlier work.

As for `CC(C)c1cccc(C(C)C)c1N1C(=O)c2c(F)c(F)c(F)c(F)c2C1=O` [Compound 2, 2-(2,6-diizopropylphenyl)-4,5,6,7-tetrafluorisoindolin-1,3-dione], in test [1], the anti-inflammatory effect entry was “has anti-inflammatory effect”. Further, in test [2], the “effect on growth of the subcutaneous primary tumor (tumor mass)” value is on record as “not significant”. Also, the “production of tumor necrosis factor” value in test [3] is reported as “inhibits the production of tumor necrosis factor”.
